Results taken from US20250161286A1 (AEVIS BIO, INC., priority 2022, published 2025).

Experiments:
[1] = system: SALL4; assay: SALL4 degradation by immunoblotting in Tera-1 cells; format: cell-based, human; settings: 0.000128-10 μM, 4 hours
From the text: It has been reported that a cereblon (CRBN)-binding therapeutic such as a thalidomide-based compound can cause severe congenital abnormalities such as forelimb shortening or brachydactyly, which are closely associated with the decomposition of SALL4.
To this end, the Tera-1 cell line (HTB-105), which is a human embryonic carcinoma cell line, was purchased from the American Type Culture Collection (ATCC, Manassas, VA, USA) and used, and then cultured using a DMEM medium (Corning, MD, USA) supplemented with 10% fetal bovine serum (Corning, MD, USA), 100 U/ml of penicillin (Corning, MD, USA), and 100 μg/ml streptomycin (Corning, MD, USA) at 37° C. in a 5% CO2 incubator.
(§1) The cells were disrupted by adding a RIPA buffer containing a protease inhibitor cocktail (Thermo Fisher Scientific), and centrifuged at 14,000 rpm for 15 minutes at 4° C. to obtain a cell extract. Equal amounts of the cell extract were loaded, and proteins were separated by SDS-PAGE and then transferred to a PVDF membrane. The protein-transferred membrane was blocked using skim milk, incubated with a primary antibody for 3 hours at room temperature, and then incubated with an HRP-conjugated secondary antibody for 1 hour at room temperature. The resulting product was washed with TBS-T three times between steps. […]

[2] = system: mouse model with Parkinson's disease induced by MPTP administration; assay: Grip strength test in MPTP-induced Parkinson's disease mouse model; format: in vivo; settings: MPTP mice
Description: (§2) To cause the disease, mice in the G2, G3, G4, and G5 groups were administered MPTP dissolved in saline via an intraperitoneal route at 2-hour intervals four times a day (20 mg/kg/time), while the G1 group received the same amount of saline.
A grip strength test was performed on day 6 of the test. When a mouse put on a grip strength measuring device (SLD-5FGN, Duratool, China) pulled a net of the device, the measuring device automatically measured the animal's grip strength and expressed it in grams. The average value was measured through five tests per individual.

[3] = Cytotoxicity evaluation, CCK analysis kit; format: cell-based; settings: human, MM.1S (CRL-2974) multiple myeloma cells; MM.1S cells, treated for 3 days
Description: The MM.1S (CRL-2974) cell line, which is a human multiple myeloma cell line, was purchased from the American Type Culture Collection (ATCC, Manassas, VA, USA) and used, and incubated using RPMI1640 medium (Corning, MD, USA) supplemented with 10% fatal bovine serum (Corning, MD, USA), 100 U/ml of penicillin (Corning, MD, USA), and 100 μg/ml of streptomycin (Corning, MD, USA) at 37° C. in a 5% CO2 incubator for 24 hours.

[4] = system: iNOS and COX-2; assay: iNOS and COX-2 expression in LPS-stimulated RAW264.7 cells (immunoblotting); format: cell-based, mouse; settings: RAW264.7 cells, 3.33, 10 or 30 μM, 60 ng/ml LPS, 24 hours
Description: To confirm an oxidative stress suppression effect, the expression levels of iNOS and COX-2 were confirmed.
To this end, the RAW264.7 cell line, which is a mouse macrophage cell line, was purchased from the Korea Cell Line Bank (KCLB, Korea) and used, and cultured in a DMEM medium (Corning, MD, USA) supplemented with 10% fetal bovine serum (Corning, MD, USA), 100 U/ml of penicillin (Corning, MD, USA), and 100 μg/ml of streptomycin (Corning, MD, USA) at 37° C. in a 5% CO2 incubator.
as §1, with “After 1 hour, the cells were stimulated by treatment with 60 ng/ml of LPS, and further cultured for 24 hours. The cells” for “The cells”, “(Thermo Fisher Scientific) and centrifuged” for “(Thermo Fisher Scientific), and centrifuged”, “were separated through SDS-PAGE and” for “were separated by SDS-PAGE and”, “a PVDF film. The protein-transferred” for “a PVDF membrane. The protein-transferred”

[5] = system: tyrosine hydroxylase (TH); assay: Immunohistochemical test of tyrosine hydroxylase in brain of MPTP mice; format: in vivo, mouse; settings: oral, versus MPTP group
Description: as §2
After the end of the test on day 7, the brain tissue of the sacrificed mice was collected, sectioned, and analyzed.
Six mice per group were fixed by perfusion with saline followed by perfusion with 4% paraformaldehyde (Biosesang, cat #PC2031-000-00). Each brain tissue was rapidly frozen after isolation and stored at −80° C. until tissue sectioning. Sections for immunohistochemical testing were embedded in an OCT compound (SAKURA, cat #4583), samples were sectioned into 20 μm-thick sections using a cryomicrotome, Leica CM1950 (Leica Microsystems, Germany), and each section was stored at 4° C. until an antibody reaction. […] Images stained with the tyrosine hydroxylase antibody were observed under a microscope (Olympus, SZ61, BX51), and the OD values, which are immunostaining-positive, observed in the striatum and substantia nigra tissue were measured and analyzed by the Image J program.

## Nc1cccc2c1C(=S)N(C1CCC(=O)NC1=O)C2=O (stereo not shown) [3-MP, 3-thiopomalidomide]
[1]
  decomposition of SALL4: less decomposition of SALL4 than pomalidomide
[2]; oral, 90 mg/kg
  grip strength: recovered to a level similar to that of the vehicle administration group
[2]; oral, 10, 30, 90 mg/kg/day, versus MPTP group
  grip strength: increased in a concentration-dependent manner
[3]
  IC50 at 3 days: ≥ 50 µM
[4]
  expression of iNOS and COX-2 (protein): inhibit the expression of iNOS and COX-2
[5]; 30 and 90 mg/kg
  expression of tyrosine hydroxylase in the substantia nigra: increased in a statistically significant manner
[5]; all doses, particularly 30 mg/kg
  expression of tyrosine hydroxylase (TH) in the striatum: significantly increased
